Experimental data from ChEMBL document CHEMBL1139148, “N-Phenyl-N'-(2-chloroethyl)urea analogues of combretastatin A-4: Is the N-phenyl-N'-(2-chloroethyl)urea pharmacophore mimicking the trimethoxy phenyl moiety?” (2007).

Columns and labels:
Assay type in all cases: functional
[1] = system: M21; assay: Growth inhibition of human M21 cells
[2] = system: MDA-MB-231; assay: Growth inhibition of human MDA-MB-231 cells
[3] = system: MCF7; assay: Growth inhibition of human MCF7 cells
[4] = system: HT-29; assay: Growth inhibition of human HT29 cells
[5] = system: M21; assay: Cell cycle arrest in human M21 cells assessed as accumulation at G1 phase at 53 uM after 24 hrs
[6] = system: M21; assay: Cell cycle arrest in human M21 cells assessed as accumulation at S phase at 53 uM after 24 hrs
[7] = system: M21; assay: Cell cycle arrest in human M21 cells assessed as accumulation at G1 phase at 21 uM after 24 hrs
[8] = system: M21; assay: Cell cycle arrest in human M21 cells assessed as accumulation at S phase at 21 uM after 24 hrs
[9] = system: M21; assay: Cell cycle arrest in human M21 cells assessed as accumulation at G2/M phase at 21 uM after 24 hrs
[10] = system: M21; assay: Cell cycle arrest in human M21 cells assessed as accumulation at G1 phase at 6 uM after 24 hrs
[11] = system: M21; assay: Cell cycle arrest in human M21 cells assessed as accumulation at G2/M phase at 6 uM after 24 hrs
[12] = system: M21; assay: Cell cycle arrest in human M21 cells assessed as accumulation at G2/M phase at 53 uM after 24 hrs
[13] = system: M21; assay: Induction of apoptosis in human M21 cells at 21 uM after 24 hrs
[14] = system: M21; assay: Induction of apoptosis in human M21 cells at 53 uM after 24 hrs
[15] = system: M21; assay: Induction of apoptosis in human M21 cells at 6 uM after 24 hrs
[16] = system: M21; assay: Cell cycle arrest in human M21 cells assessed as accumulation at S phase at 6 uM after 24 hrs
[17] = system: M21; assay: Cell cycle arrest in human M21 cells assessed as accumulation at S phase at 0.125 uM after 24 hrs
[18] = system: M21; assay: Cell cycle arrest in human M21 cells assessed as accumulation at G1 phase at 0.125 uM after 24 hrs
[19] = system: M21; assay: Cell cycle arrest in human M21 cells assessed as accumulation at S phase at 0.050 uM after 24 hrs
[20] = system: M21; assay: Cell cycle arrest in human M21 cells assessed as accumulation at G1 phase at 0.015 uM after 24 hrs
[21] = system: M21; assay: Induction of apoptosis in human M21 cells at 0.015 uM after 24 hrs
[22] = system: M21; assay: Cell cycle arrest in human M21 cells assessed as accumulation at G2/M phase at 0.125 uM after 24 hrs
[23] = system: M21; assay: Cell cycle arrest in human M21 cells assessed as accumulation at G1 phase at 0.050 uM after 24 hrs
[24] = system: M21; assay: Induction of apoptosis in human M21 cells at 0.050 uM after 24 hrs
[25] = system: M21; assay: Cell cycle arrest in human M21 cells assessed as accumulation at G2/M phase at 0.015 uM after 24 hrs
[26] = system: M21; assay: Cell cycle arrest in human M21 cells assessed as accumulation at G2/M phase at 0.050 uM after 24 hrs
[27] = system: M21; assay: Cell cycle arrest in human M21 cells assessed as accumulation at S phase at 0.015 uM after 24 hrs
[28] = system: M21; assay: Induction of apoptosis in human M21 cells at 0.125 uM after 24 hrs
[29] = system: M21; assay: Cell cycle arrest in human M21 cells assessed as accumulation at S phase at 80 uM after 24 hrs
[30] = system: M21; assay: Cell cycle arrest in human M21 cells assessed as accumulation at G2/M phase at 80 uM after 24 hrs
[31] = system: M21; assay: Induction of apoptosis in human M21 cells at 24 uM after 24 hrs
[32] = system: M21; assay: Induction of apoptosis in human M21 cells at 200 uM after 24 hrs
[33] = system: M21; assay: Cell cycle arrest in human M21 cells assessed as accumulation at S phase at 24 uM after 24 hrs
[34] = system: M21; assay: Induction of apoptosis in human M21 cells at 80 uM after 24 hrs
[35] = system: M21; assay: Cell cycle arrest in human M21 cells assessed as accumulation at G2/M phase at 200 uM after 24 hrs
[36] = system: M21; assay: Cell cycle arrest in human M21 cells assessed as accumulation at G2/M phase at 24 uM after 24 hrs
[37] = system: M21; assay: Cell cycle arrest in human M21 cells assessed as accumulation at S phase at 200 uM after 24 hrs
[38] = system: M21; assay: Cell cycle arrest in human M21 cells assessed as accumulation at G1 phase at 200 uM after 24 hrs
[39] = system: M21; assay: Cell cycle arrest in human M21 cells assessed as accumulation at G1 phase at 24 uM after 24 hrs
[40] = system: M21; assay: Cell cycle arrest in human M21 cells assessed as accumulation at G1 phase at 80 uM after 24 hrs

| GI50 [2] | GI50 [3] | GI50 [4] | Structure (SMILES) | GI50 [1] | Activity [29] | Activity [30] | Activity [31] | Activity [32] | Activity [33] | Activity [34] | Activity [35] | Activity [36] | Activity [37] | Activity [38] | Activity [39] | Activity [40] | also measured |
| --- | --- | --- | --- | --- | --- | --- | --- | --- | --- | --- | --- | --- | --- | --- | --- | --- | --- |
| 0.23 µM | 0.48 µM | 0.16 µM | O=C(NCCCl)Nc1cccc(CCCCCO)c1 | 0.27 µM |  |  |  |  |  |  |  |  |  |  |  |  |  |
| 0.86 µM | 1.65 µM | 2.4 µM | COc1ccc(/C=C\c2ccc(NC(=O)NCCCl)cc2)cc1O | 0.97 µM |  |  |  |  |  |  |  |  |  |  |  |  | Activity [5]: 8.1%; Activity [6]: 12.5%; Activity [7]: 6.8%; Activity [8]: 9.7%; Activity [9]: 47.2%; Activity [10]: 11.4%; Activity [11]: 43.3%; Activity [12]: 48%; Activity [13]: 17.6%; Activity [14]: 9.7%; Activity [15]: 10.7%; Activity [16]: 15.8% |
| 0.002 µM | 0.003 µM | 0.089 µM | COc1ccc(/C=C\c2cc(OC)c(OC)c(OC)c2)cc1O [COMBRETASTATIN A4] | 0.002 µM |  |  |  |  |  |  |  |  |  |  |  |  | Activity [17]: 14.7%; Activity [18]: 8.2%; Activity [19]: 14.6%; Activity [20]: 9.4%; Activity [21]: 10.7%; Activity [22]: 45.4%; Activity [23]: 10.1%; Activity [24]: 15.8%; Activity [25]: 46.4%; Activity [26]: 40.6%; Activity [27]: 15%; Activity [28]: 11.6% |
| 4.9 µM | 4.5 µM | 9.2 µM | COc1ccc(/C=C\c2cccc(NC(=O)NCCCl)c2)cc1O | 4 µM | 16.4% | 35.5% | 44.8% | 21.7% | 12.3% | 15% | 41.3% | 12.5% | 10.5% | 14.7% | 22.1% | 18.4% |  |
| 11 µM | 15.9 µM | 15.3 µM | COc1ccc(CCc2ccc(NC(=O)NCCCl)cc2)cc1O | 16.3 µM | 13.4% | 45.1% | 2.8% | 2.6% | 9.9% | 2.3% | 47.9% | 30.2% | 16.3% | 7.2% | 37.8% | 15.5% |  |
| 4.1 µM | 11.6 µM | 9.6 µM | COc1ccc(CCc2cccc(NC(=O)NCCCl)c2)cc1O | 4.7 µM | 16.4% | 34.9% | 12.5% | 6.9% | 20.7% | 18.7% | 42.6% | 27.5% | 15.7% | 13.5% | 23.8% | 15.2% |  |
| 17.4 µM | 14 µM | 1.18 µM | COc1ccc(/C=C/c2ccc(NC(=O)NCCCl)cc2)cc1O | 8.38 µM | 15.6% | 21% | 9.9% | 11.9% | 12.9% | 5.5% | 12.4% | 19.5% | 21.9% | 37.4% | 38.1% | 38.8% |  |
| 16.5 µM | 28.2 µM | 68.2 µM | COc1ccc(/C=C/c2cccc(NC(=O)NCCCl)c2)cc1O | 22.7 µM | 18.7% | 21.3% | 8.3% | 4.5% | 16.6% | 5.3% | 19.6% | 22.5% | 19% | 40.3% | 37.2% | 38.1% |  |
